Where two headings read alike, the source gives them in different places. Starred links: 1 amine or outer side, 2 acyl side, 3 side chain; linkers in the order of their positions; H or OH if unused. Positions of bridges follow the written chain, without caps; N, C: chain ends. Non-standard residues stand in square brackets, D forms with d. Residues, ends and D or L forms follow the SMILES beside them. Phe(3-Me) = Cc1cccc(C[C@H](N)C(=O)O)c1; Phe(4-Me) = Cc1ccc(C[C@H](N)C(=O)O)cc1; γGlu = O=C(O)[C@H](CCC(=O)[*:2])N[*:1]; βAsp = O=C(O)[C@H](CC(=O)[*:2])N[*:1]; Ahp(2) = CCCCC[C@H](N)C(=O)O; NMeNle = CCCC[C@H](NC)C(=O)O; Tle = CC(C)(C)[C@H](N)C(=O)O; NHexGly = CCCCCCNCC(=O)O; NMeA = CN[C@@H](C)C(=O)O; Nle = CCCC[C@H](N)C(=O)O; Orn = NCCC[C@H](N)C(=O)O; Aun = NCCCCCCCCCCC(=O)O; AEEA = NCCOCCOCC(=O)O
Target: T1, mouse VISTA (mVISTA) (Mus musculus, UniProt Q9D659)
T1 construct: expressed in transfected cells; host or cells: Human embryonic kidney 293T cells
T1 sequence (Q9D659 33-308): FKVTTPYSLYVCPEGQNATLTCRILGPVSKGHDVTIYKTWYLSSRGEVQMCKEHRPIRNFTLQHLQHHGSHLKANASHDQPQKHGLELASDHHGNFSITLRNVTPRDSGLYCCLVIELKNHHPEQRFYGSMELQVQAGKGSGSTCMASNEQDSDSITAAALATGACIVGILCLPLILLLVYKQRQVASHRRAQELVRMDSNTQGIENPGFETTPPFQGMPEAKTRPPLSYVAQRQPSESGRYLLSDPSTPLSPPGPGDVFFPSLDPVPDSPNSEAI
Test: Cell-Based Binding High-Content Assay For mVISTA (HC CBA mVISTA)
Method in brief: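 Competition of compound with a biotinylated peptide (final 2 nM, 30 min at RT) for binding to mVISTA on 293T cells, run under no-wash or wash (1 h compound preincubation then removal) formats. Readout by Alexa 647–streptavidin imaging on a high-content platform; four-parameter logistic fit gave IC50.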

| IC50 (read-out: HC CBA mVISTA IC50) | Compound | other results |
| --- | --- | --- |
|  | CCCCCCN1CC(=O)N[C@@H](Cc2ccc(O)cc2)C(=O)N[C@@H](CC(C)C)C(=O)N[C@@H](CC(N)=O)C(=O)N[C@@H](CCCN)C(=O)N(C)[C@@H](CCCC)C(=O)N[C@@H](CCCCC)C(=O)N2CCC[C@H]2C(=O)N[C@@H](C(C)(C)C)C(=O)N[C@@H](CO)C(=O)N[C@H](C(=O)N[C@@H](CC(=O)NCCOCCOCC(=O)N[C@@H](CC(=O)O)C(=O)NCCOCCOCC(=O)NCCCCCCCCCCC(=O)O)C(=O)O)CSCC(=O)N[C@@H](Cc2ccccc2)C(=O)N[C@@H](Cc2ccc(O)cc2)C(=O)N[C@@H](CC(=O)O)C1=O [compound 2045] ({CH2CO}-FYD[NHexGly]YLN[Orn][NMeNle][Ahp(2)]P[Tle]SC[βAsp][AEEA]D[AEEA][Aun]-OH; thioether N-14) | IC50 (cell-based binding high-content assay, mVISTA, read-out: HC CBA miPr ISTA IC50): 20.1 nM |
| 19.8 nM | CCCCCCN1CC(=O)N[C@@H](Cc2ccc(O)cc2)C(=O)N[C@@H](CCCC)C(=O)N[C@@H](CC(N)=O)C(=O)N[C@@H](CCCNC(=N)N)C(=O)N(C)[C@@H](CCCC)C(=O)N[C@@H](CCCCC)C(=O)N(C)[C@@H](C)C(=O)N[C@@H](C(C)(C)C)C(=O)N[C@@H](CO)C(=O)N[C@H](C(=O)N[C@@H](CC(=O)NCCOCCOCC(=O)NCCCCCCCCCCC(=O)O)C(=O)O)CSCC(=O)N[C@@H](Cc2ccccc2)C(=O)N[C@@H](Cc2c[nH]c3ccccc23)C(=O)N[C@@H](CC(=O)O)C1=O [Example 2169] ({CH2CO}-FWD[NHexGly]Y[Nle]NR[NMeNle][Ahp(2)][NMeA][Tle]SC[βAsp][AEEA][Aun]-OH; thioether N-14) |  |
|  | CCCCCCN1CC(=O)N[C@@H](Cc2ccc(O)cc2)C(=O)N[C@@H](C(C)C)C(=O)NCC(=O)N[C@@H](CCCNC(=N)N)C(=O)N[C@@H](CC(C)C)C(=O)N[C@@H](CCCCC)C(=O)N2CCC[C@H]2C(=O)N[C@@H](C(C)C)C(=O)N[C@@H](CC(=O)O)C(=O)N[C@H](C(=O)NCC(=O)O)CSCC(=O)N[C@@H](Cc2ccccc2)C(=O)N[C@@H](Cc2ccc(O)cc2)C(=O)N[C@@H](CC(=O)O)C1=O [Example 1018] ({CH2CO}-FYD[NHexGly]YVGRL[Ahp(2)]PVDCG-OH; thioether N-14) | IC50 (293T cells expressing mouse VISTA, competition with biotinylated peptide (2 nM), read-out: HC CBA mVISTA IC50): 33.9 nM |
| 13.1 nM | CCCCCCN1CC(=O)N[C@@H](Cc2ccc(O)cc2)C(=O)N[C@@H](CC(C)C)C(=O)N[C@@H](CC(N)=O)C(=O)N[C@@H](CCCNC(=N)N)C(=O)N[C@@H](CC(C)C)C(=O)N[C@@H](CCCCC)C(=O)N2CCC[C@H]2C(=O)N[C@@H](C(C)C)C(=O)N[C@@H](C(C)C)C(=O)N[C@H](C(=O)NCCOCCOCC(=O)N[C@@H](CCC(=O)NCCOCCOCC(=O)NCCCCCCCCCCC(=O)O)C(=O)O)CSCC(=O)N[C@@H](Cc2ccccc2)C(=O)N[C@@H](Cc2ccc(O)cc2)C(=O)N[C@@H](CC(=O)O)C1=O [compound 2217] ({CH2CO}-FYD[NHexGly]YLNRL[Ahp(2)]PVVC[AEEA][γGlu][AEEA][Aun]-OH; thioether N-14) |  |
| 42.5 nM | CCCCCCN1CC(=O)N[C@@H](Cc2ccc(O)cc2)C(=O)N[C@@H](CC(C)C)C(=O)N[C@@H](CC(N)=O)C(=O)N[C@@H](CCCNC(=N)N)C(=O)N[C@@H](CC(C)C)C(=O)N[C@@H](CCCCC)C(=O)N2CCC[C@H]2C(=O)N[C@@H](C(C)(C)C)C(=O)N[C@@H](C(C)C)C(=O)N[C@H](C(=O)NCCOCCOCC(=O)N[C@@H](CCC(=O)NCCOCCOCC(=O)NCCCCCCCCCCC(=O)O)C(=O)O)CSCC(=O)N[C@@H](Cc2ccccc2)C(=O)N[C@@H](Cc2c[nH]c3ccccc23)C(=O)N[C@@H](CC(=O)O)C1=O [compound 2231] ({CH2CO}-FWD[NHexGly]YLNRL[Ahp(2)]P[Tle]VC[AEEA][γGlu][AEEA][Aun]-OH; thioether N-14) |  |
|  | CCCCCCN1CC(=O)N[C@@H](Cc2ccc(O)cc2)C(=O)N[C@@H](CCCC)C(=O)NCC(=O)N[C@@H](CCCNC(=N)N)C(=O)N[C@@H](CC(C)C)C(=O)N[C@@H](CCCCC)C(=O)N2CCC[C@H]2C(=O)N[C@@H](C(C)C)C(=O)N[C@@H](CC(=O)O)C(=O)N[C@H](C(=O)NCC(=O)O)CSCC(=O)N[C@@H](Cc2cccc(C)c2)C(=O)N[C@@H](Cc2c[nH]c3ccccc23)C(=O)N[C@@H](CC(=O)O)C1=O [compound 1421] ({CH2CO}-[Phe(3-Me)]WD[NHexGly]Y[Nle]GRL[Ahp(2)]PVDCG-OH; thioether N-14) | IC50 (the 19th table, scaffold drawing 22, read-out: HC CBA mVISTA IC50): 3.1 nM |

| Compound | IC50 (read-out: HC CBA mVISTA IC50) | other results |
| --- | --- | --- |
| CCCCCCN1CC(=O)N[C@@H](Cc2ccc(O)cc2)C(=O)N[C@@H](CC(C)C)C(=O)N[C@@H](CC(N)=O)C(=O)N[C@@H](CCCNC(=N)N)C(=O)N(C)[C@@H](CCCC)C(=O)N[C@@H](CCCCC)C(=O)N2CCC[C@H]2C(=O)N[C@@H](C(C)(C)C)C(=O)N[C@@H](CO)C(=O)N[C@H](C(=O)NCC(N)=O)CSCC(=O)N[C@@H](Cc2ccc(C)cc2)C(=O)N[C@@H](Cc2ccc(O)cc2)C(=O)N[C@@H](CC(=O)O)C1=O [compound 1215] ({CH2CO}-[Phe(4-Me)]YD[NHexGly]YLNR[NMeNle][Ahp(2)]P[Tle]SCG-NH2; thioether N-14) | 16.7 nM |  |
